The experiment has as its target Ypt1p (His6-Ypt1p 1-180) (Saccharomyces cerevisiae, UniProt P01123). The experiment can be described thus: stopped-flow fluorescence. The experiment is classed as binding. Particulars: pH 8.0, 25 °C, 5 mM MgCl2; labelled compound; nucleotide-free Ypt1p; association rate constant.

Ypt1p (His6-Ypt1p 1-180), sequence (P01123 1-180): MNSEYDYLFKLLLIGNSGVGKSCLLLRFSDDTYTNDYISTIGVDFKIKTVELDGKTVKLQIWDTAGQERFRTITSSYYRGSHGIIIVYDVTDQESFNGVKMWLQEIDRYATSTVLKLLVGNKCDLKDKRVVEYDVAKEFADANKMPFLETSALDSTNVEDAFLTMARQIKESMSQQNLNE

As for `CNc1ccccc1C(=O)O[C@H]1C[C@H](n2cnc3c(=O)[nH]c(N)nc32)O[C@@H]1COP(=O)(O)OP(=O)(O)O` [mant-dGDP], the Value is on record as 0.096 (±0.004) μM^-1 s^-1.

For the origin of these results see PMC2770256 (Journal of molecular biology, 2009).
